In brackets after ≈: the same amount, converted by molar mass. Read-outs that look alike come from different tables or passages of the source.
How the values were obtained:
[1] = parameters: method as in earlier work; conditions: cited from earlier work
[2] = biological target: T1, FAS (Rattus norvegicus, UniProt P12785); parameters: method as in PMID 23620264; conditions: previously described by the group; read-out: IC50 (FAS inhibition); cited from earlier work
T1 construct: Cytosolic hepatic extracts obtained from rat (210 µg) were preincubated at 30 °C for 30 min; from tissue; host or cells: rat liver (cytosolic, FAS-enriched hepatic extract)
T1 sequence (P12785 whole entry): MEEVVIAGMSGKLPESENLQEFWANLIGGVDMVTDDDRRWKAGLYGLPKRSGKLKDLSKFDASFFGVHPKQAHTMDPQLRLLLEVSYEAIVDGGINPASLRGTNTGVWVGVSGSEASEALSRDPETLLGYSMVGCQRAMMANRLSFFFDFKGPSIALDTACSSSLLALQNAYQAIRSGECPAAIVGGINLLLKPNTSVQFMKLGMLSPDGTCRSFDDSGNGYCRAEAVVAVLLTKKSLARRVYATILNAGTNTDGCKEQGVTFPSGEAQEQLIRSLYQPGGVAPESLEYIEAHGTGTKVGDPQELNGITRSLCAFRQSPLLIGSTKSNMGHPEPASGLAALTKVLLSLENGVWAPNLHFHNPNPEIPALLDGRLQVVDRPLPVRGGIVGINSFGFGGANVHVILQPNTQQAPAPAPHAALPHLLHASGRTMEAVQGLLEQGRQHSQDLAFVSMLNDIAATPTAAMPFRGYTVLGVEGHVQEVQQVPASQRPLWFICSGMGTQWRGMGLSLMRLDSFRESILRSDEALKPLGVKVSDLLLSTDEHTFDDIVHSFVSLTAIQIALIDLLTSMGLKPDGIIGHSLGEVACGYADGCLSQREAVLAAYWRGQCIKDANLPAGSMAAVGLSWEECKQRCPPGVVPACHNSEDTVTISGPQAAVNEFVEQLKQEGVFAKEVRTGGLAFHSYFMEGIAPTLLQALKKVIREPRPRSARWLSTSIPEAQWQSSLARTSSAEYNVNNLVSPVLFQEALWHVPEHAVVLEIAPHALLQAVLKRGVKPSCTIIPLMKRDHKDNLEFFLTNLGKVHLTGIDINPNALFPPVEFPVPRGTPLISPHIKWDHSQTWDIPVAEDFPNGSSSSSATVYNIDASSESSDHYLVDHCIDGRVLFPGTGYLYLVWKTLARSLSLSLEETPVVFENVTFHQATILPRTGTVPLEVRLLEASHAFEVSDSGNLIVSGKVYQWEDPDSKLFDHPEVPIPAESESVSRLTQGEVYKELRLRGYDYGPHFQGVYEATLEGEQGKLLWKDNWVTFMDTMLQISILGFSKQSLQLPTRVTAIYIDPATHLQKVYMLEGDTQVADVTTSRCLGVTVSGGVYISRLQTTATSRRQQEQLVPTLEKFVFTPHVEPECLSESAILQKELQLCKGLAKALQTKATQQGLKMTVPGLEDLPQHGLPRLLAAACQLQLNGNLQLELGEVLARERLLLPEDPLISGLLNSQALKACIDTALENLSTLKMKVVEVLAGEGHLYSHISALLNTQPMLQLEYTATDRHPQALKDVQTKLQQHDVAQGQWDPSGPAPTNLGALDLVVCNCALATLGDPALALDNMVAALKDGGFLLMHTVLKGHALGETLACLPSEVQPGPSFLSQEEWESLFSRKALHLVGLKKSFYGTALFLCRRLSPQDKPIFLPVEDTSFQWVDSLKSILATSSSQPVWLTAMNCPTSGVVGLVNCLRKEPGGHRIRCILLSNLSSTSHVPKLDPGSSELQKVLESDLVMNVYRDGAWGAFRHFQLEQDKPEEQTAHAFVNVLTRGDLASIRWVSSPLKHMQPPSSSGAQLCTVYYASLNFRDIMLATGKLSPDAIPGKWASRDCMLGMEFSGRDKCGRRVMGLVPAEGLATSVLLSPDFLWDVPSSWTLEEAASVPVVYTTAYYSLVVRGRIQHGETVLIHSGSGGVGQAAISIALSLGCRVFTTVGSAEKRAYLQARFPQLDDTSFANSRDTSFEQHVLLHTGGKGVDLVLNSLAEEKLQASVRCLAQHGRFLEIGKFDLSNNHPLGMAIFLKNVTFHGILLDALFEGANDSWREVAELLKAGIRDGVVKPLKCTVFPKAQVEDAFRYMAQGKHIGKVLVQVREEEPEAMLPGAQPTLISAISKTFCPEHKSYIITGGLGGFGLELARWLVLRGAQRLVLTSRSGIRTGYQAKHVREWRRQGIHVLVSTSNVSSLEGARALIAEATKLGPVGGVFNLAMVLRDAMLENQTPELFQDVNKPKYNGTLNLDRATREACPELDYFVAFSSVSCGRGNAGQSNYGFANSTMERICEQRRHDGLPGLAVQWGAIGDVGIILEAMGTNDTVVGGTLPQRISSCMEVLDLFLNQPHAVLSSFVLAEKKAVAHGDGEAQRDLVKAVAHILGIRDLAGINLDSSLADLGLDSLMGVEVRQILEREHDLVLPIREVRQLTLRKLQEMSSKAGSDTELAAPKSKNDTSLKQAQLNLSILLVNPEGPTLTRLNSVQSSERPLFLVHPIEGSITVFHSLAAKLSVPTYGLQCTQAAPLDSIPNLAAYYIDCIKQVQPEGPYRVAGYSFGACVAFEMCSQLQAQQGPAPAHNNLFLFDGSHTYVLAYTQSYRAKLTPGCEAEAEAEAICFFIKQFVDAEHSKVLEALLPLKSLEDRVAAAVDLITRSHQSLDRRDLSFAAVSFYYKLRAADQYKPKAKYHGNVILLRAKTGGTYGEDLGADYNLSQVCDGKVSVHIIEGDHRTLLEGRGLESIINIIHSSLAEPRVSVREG

[3] = Turbidimetry solubility assay; assay type: physicochemical; conditions: for solubility at 2 h: kinetic from dmso stock, 2 h at 37 °C, tested 25 μM–2 mM; for Solubility over tested concentrations: tested concentrations 25–2000 µM
Experimental: This effectively created two regression lines, with the intersection corresponding to the solubility of the compound.
The compounds were incubated for 2 h at 37 °C in a Thermoshaker (Biosan®, Riga, Latvia). Solubility was assessed through turbidimetry at 600 nm using Varioskan Lux® (Thermo Scientific®, Waltham, MA, USA). The approximate solubility was calculated by finding the intersection of the two regression lines formed before and after the curve tendency change due to precipitation of the compounds.

[4] = system: OVCAR-3 cell line; test: MTT cytotoxicity assay in OVCAR-3 ovarian cancer cells; assay type: cell-based, human; conditions: for IC50: Homo sapiens, OVCAR-3, 72 h incubation, MTT, mean ± SEM of three experiments; for Fold increase in cytotoxicity compared with (±)-UB006: OVCAR-3, ratio of IC50 values
Experimental: OVCAR-3 (human ovary carcinoma, ATC HTB-161, passage number 20) cells were cultured at 37 °C in a humidified atmosphere of 5% CO2 in Dulbecco’s Modified Eagle Medium containing 4.5 g/L of glucose and supplemented with glutamine, 10% heat-inactivated fetal bovine serum, 100 units/mL of penicillin, and […] of streptomycin. The culture was passaged twice a week through gentle trypsinization. Cells were seeded in 10 cm culture dishes and grown to confluence. An MTT cytotoxicity assay was performed to evaluate the cytotoxic effect of the compounds. A total of 2 × 10^3 cells/well were plated in 96-well plates in […] of culture medium. After 24 h, the medium was removed, and cells were incubated for 72 h in fresh medium with different concentrations (0.5–20 µM) of the different compounds. DMSO was used as a blank at a final concentration of 0.5%. The cells were then incubated for 3 h with […] of fresh medium and […] of MTT dissolved in phosphate-buffered saline to a final concentration of 5 mg/mL. Following treatment, the supernatants were carefully removed, and the MTT–formazan crystals were solubilized by adding […] of DMSO. The absorbance was measured at 570 nm.
Samples were incubated for 3 days with increasing concentrations of the different compounds, followed by an MTT assay to quantify cell survival.

[5] = biological target: T1, FAS; test: Spectrophotometric FAS activity assay in rat liver extracts; assay type: biochemical; conditions: rat liver extracts (210 µg), preincubated 30 min at 30 °C, mean ± SEM of three experiments
Experimental: For in vitro experiments, FAS was purified from rat liver following the protocol previously described by Linn. FAS activity was measured using a spectrophotometric method, as previously described. […] NADPH (121 µM) and acetyl-CoA (61 µM) in potassium phosphate buffer (pH 7.2) were added to preincubated enzyme and equilibrated at 37 °C for 3 min. The reaction was initiated through the addition of malonyl-CoA (55 µM). The total reaction volume was 330 µL. Oxidation of NADPH was measured at 340 nm at 37 °C for 10 min.
Figure 3 FAS activity assay in rat liver extracts. Representation of % of remaining FAS activity of spectrophotometric activity assay.

| solubility at 2 h ([3]; water with 1% DMSO) [µM] | SMILES | IC50 [4] [µM] | also measured |
| --- | --- | --- | --- |
|  | C=C1C(=O)O[C@@H](CCCCCCCC)[C@@H]1C(=O)O (racemic) [(±)-C75] |  | Solubility in basic aqueous media ([1]; basic aqueous media): < 100 µg/mL; Solubility in water ([1]; water): insoluble in water; IC50 [2]: 460 ± 56 µM |
| 550 (≈ 132 µg/mL) | C=C1C(=O)O[C@@H](CCCCCCCC)[C@@H]1CO (racemic) [(±)-UB006, (4SR,5SR)-4-(hydroxymethyl)-3-methylene-5-octyldihydrofuran-2(3H)-one] |  |  |
| 473 (≈ 120 µg/mL) | C=C1C(=O)O[C@@H](CCCCCCCC)[C@H]1C(C)O (mixture of isomers) [(±)-UB031, (4RS,5SR)-4-(1-hydroxyethyl)-3-methylene-5-octyldihydrofuran-2(3H)-one] | 3.6 ± 0.2 | Fold increase in cytotoxicity compared with (±)-UB006 [4]: 1.4 fold |
| 390 (≈ 105 µg/mL) | C=C1C(=O)O[C@@H](CCCCCCCC)[C@H]1C(O)CC (mixture of isomers) [(±)-UB032, (4RS,5SR)-4-(1-hydroxypropyl)-3-methylene-5-octyldihydrofuran-2(3H)-one] | 10.7 ± 0.9 |  |
| 76 (≈ 24.7 µg/mL) | C=C1C(=O)O[C@@H](CCCCCCCC)[C@H]1C(O)CCCCCC (mixture of isomers) [(±)-UB033, (4RS,5SR)-4-(1-hydroxyheptyl)-3-methylene-5-octyldihydrofuran-2(3H)-one] | 13.6 ± 1.3 |  |
| 88 (≈ 23.4 µg/mL) | C=CC(O)[C@H]1C(=C)C(=O)O[C@H]1CCCCCCCC (mixture of isomers) [(±)-UB034, (4RS,5SR)-4-(1-hydroxyallyl)-3-methylene-5-octyldihydrofuran-2(3H)-one] | 12.3 ± 1.2 |  |
| > 2000 | C=C1C(=O)O[C@@H](CCCCCCCC)[C@H]1[C@@H](O)CO (racemic) [(±)-UB035, (4RS,5SR)-4-((RS)-1,2-dihydroxyethyl)-3-methylene-5-octyldihydrofuran-2(3H)-one] | 2.1 ± 0.2 | Fold increase in cytotoxicity compared with (±)-UB006 [4]: 2.5 fold; Solubility over tested concentrations [3]: soluble at all tested concentrations; IC50 [5]: 565 ± 62 µM |
| > 2000 | C=C1C(=O)O[C@@H](CCCCCCCC)[C@H]1C(O)C(O)CO (mixture of isomers) [(±)-UB036, (4RS,5SR)-3-methylene-5-octyl-4-(1,2,3-trihydroxypropyl)dihydrofuran-2(3H)-one] | 5.5 ± 0.8 | Solubility over tested concentrations [3]: soluble at all tested concentrations; Fold increase in solubility compared with (±)-UB006 ([3]; water with 1% DMSO): ≥ 4 fold; IC50 [5]: 458 ± 54 µM |

Source: paper PMC11859419, “New UB006 Derivatives With Higher Solubility and Cytotoxic Activity in Ovarian Cancer Cells” (Pharmaceuticals, 2025)
